Results reported in PMC6843786, “Temporin-SHa and Its Analogs as Potential Candidates for the Treatment of Helicobacter pylori” (Biomolecules, 2019).
Where two headings read alike, the source gives them in different places. Non-standard residues stand in square brackets, D forms with d. Residues, ends and D or L forms follow the SMILES beside them.

What was measured:
H. pylori (ATCC 43504) = test system: H. pylori (ATCC 43504)
Method: The bactericidal activity of peptides was assessed using the time kill assay as previously described with some modifications. Briefly, overnight liquid culture of H. pylori (ATCC 43504) was prepared and an optical density measurement (OD600nm) was taken to provide an estimation of cell numbers in the culture. Bacterial suspension was then centrifuged at 3000 rpm for 5 min and the bacterial pellet was then resuspended in sterile PBS pH6 at approximatively 10^7 CFU/mL. The pH of PBS was changed from 7 to 6 with HCl to mimic the micro-environment surrounding H. pylori in the stomach. Indeed, although the lumen of the stomach is around 1–2, H. pylori is able, through the activity of its urease, to create a local micro-environment around it of pH 6 [31]. In addition to PBS pH 6, the time kill assay was also performed in PBS pH 6 containing a mixture of porcine stomach mucins MUC2 and MUC3 (at 1 mg/mL, final concentration) or in the presence of human gastric cells N87 producing human mucus. In that particular case, N87 cells were seeded onto 96-wells plates and left to grow for 48–72 h until they reached confluence. At that time, wells were aspirated and bacterial suspension in PBS pH 6 were added to the wells. In all cases, resuspended bacteria (200 µL) were treated with peptides or the conventional antibiotic amoxicillin at a final concentration corresponding to five times their MIC. Bacteria were then incubated in micro-aerobic conditions at 37 °C using GasPak units. […] The petri dishes were then incubated 16 h at 37 °C in microaerophilic conditions before counting of growing colonies. The number of surviving bacteria was calculated using the number of observed colonies and the dilution factor. The experiment was done in triplicate.

human gastric explants = experiment: Ex vivo toxicity assay, LDH release from human gastric explants; type: cell-based; conditions: peptides 100 µM, CTAB 300 µM, % of total release
Method: To further evaluate the innocuity of the peptides, ex vivo experiments were performed using human explants as previously described. Briefly, human gastric tissue samples were obtained from patients undergoing surgery at the Hospital Laveran (Marseille, France), unit of gastrointestinal surgery according to a collaborative clinical transfer project. The procedures were approved by the French ethic committee (CODECOH n° DC-2019-3402). All patients agreed for the use of their tissues for research purposes. Samples were taken from healthy patients during sleeve gastrectomy from macroscopically unaffected area as identified by the surgeons. After resection, the specimens were placed in ice-cold oxygenated sterile DMEM solution containing 1% streptomycin/penicillin solution and 50 μg/mL gentamycin and were directly transferred to the laboratory within 15 min on ice. Gastric tissues were extensively washed and maintained in ice-cold culture media containing 1% streptomycin/penicillin solution and 50 μg/mL gentamycin. Tissues were cleaned from vascular vessels and conjunctive tissue using forceps under binocular microscope. Gastric explants (wet weight of 20–30 mg) were then isolated from the cleaned resections using surgical punch (diameter of 0.5 cm^2). […] Finally, the explants were washed three times with culture media without antibiotics and transferred into 24-well plates before being incubated in RPMI media without fetal bovine serum, antibiotics and phenol red at 37 °C in the 5% CO2 incubator with 100 µM of peptides for 2, 4 or 8 h. Phenol red was omitted from the culture media since it interferes with the lactate dehydrogenase (LDH) assay. The detergent cetyl-trimethylammonium bromide (CTAB) at 300 µM was used as positive control of tissue damages. At the end of the incubation, the explants were collected and washed three times with PBS^++ and were fixed overnight at 4 °C with PFA diluted at 4% in PBS. After that, gastric explants were washed twice with PBS and were included in an inclusion medium (TFM-EMS), in transverse position to allow cutting in the crypt-villosity axis using cryostat (Leica CM3050) (Leica Microsystems, Nanterre, France). Four sections of 5 µm thickness were obtained per explant, each section being separated by 100 µm from the next in order to cover all the tissue. Explants were then stained using hematoxylin and eosin (H&E) staining protocol. Briefly, samples were incubated for 8 min in hematoxylin (Sigma-Aldrich) and then allowed to stain by incubation with water for 2 min. Then explants were incubated for 1 min in eosin (Sigma-Aldrich) and then in water for 1 min. This was followed by incubation of explants with ethanol at concentration of 70% then 95% and finally 100% for 2 min each. After blotting excess ethanol, gastric explants were incubated for 15 min with xylene and mounted with coverslip using Eukitt mounting media (EMS, Hatfield, PA, USA). Finally, explants were left overnight to dry before examination of tissue organization under the microscope (Leitz DMRB microscope (Leïca), equipped with Leïca DFC 450C camera). Quantification of the release of LDH was also used in addition to microscopic observations to evaluate the impact of peptides on human gastric explants. Briefly, after 2, 4 or 8 h of incubation of the explants with the peptides, the supernatants of the wells were collected and stored at -80 °C before the LDH assay. The LDH activity was measured using previously described protocol with minor changes. Briefly, 50 µL of supernatants obtained from explants were mixed with 200 µL of Tris-Lactate buffer (containing Tris HCl at 86 mM, L-Lactate at 56 mM and KCl at 172 mM, pH 9.3, all from Sigma-Aldrich) and 20 µL of NAD (at 172 mM, Sigma-Aldrich) into well of 96-wells plates. Increase in OD339nm was then measured at 30 °C after 0, 1, 5, and 10 min using microplate reader (Synergy Mx, Biotek). […]

For CC[C@H](C)[C@H](NC(=O)CNC(=O)[C@H](CO)NC(=O)[C@H](CC(C)C)NC(=O)[C@@H](N)Cc1ccccc1)C(=O)N[C@H](C(=O)NCC(=O)N[C@@H](CCSC)C(=O)N[C@@H](CC(C)C)C(=O)N[C@H](C)C(=O)N[C@@H](CCCCN)C(=O)N[C@@H](CC(C)C)C(=O)N[C@@H](Cc1ccccc1)C(N)=O)C(C)C [NST1, H-Phe^1-Leu^2-Ser^3-Gly^4-Ile^5-Val^6-Gly^7-Met^8-Leu^9-D-Ala^10-Lys^11-Leu^12-Phe^13-NH2] (H-FLSGIVGML[dA]KLF-NH2), the “decrease of the number of CFUs” value (H. pylori (ATCC 43504); 20 min, PBS pH 6, 5-times MIC) was “three”, the killing (H. pylori (ATCC 43504); 20 min, PBS pH 6, 5-times MIC) was 99% and the killing (H. pylori (ATCC 43504); 60 min, presence of mucus (porcine MUC2/MUC3 1 mg/mL or N87 cells), 5-times MIC) was 91–98%. It also gave a survival (H. pylori (ATCC 43504); 3 h, PBS pH 6, 5-times MIC) of 0%, an LDH release (human gastric explants; 2 h) of 8.3% and an LDH release (human gastric explants; 4 h) of 12.0%. The LDH release (human gastric explants; 8 h) was 25.0%.
